Laboratory results as given in patent EP2768830B1, “APOPTOSIS-INDUCING AGENTS FOR THE TREATMENT OF CANCER AND IMMUNE AND AUTOIMMUNE DISEASES” (AbbVie Inc., priority 2011, dated 2013).

What was measured:
[1] = target: GST-Bcl-xL (Homo sapiens, UniProt Q07817); conditions: read-out: TR-FRET binding Bcl-xL Ki
[2] = tested on: mouse FL5.12 cells transfected with Bcl-XL; assay: FL5.12 cellular assay (cell viability, CellTiter-Glo); format: cell-based; conditions: Mus musculus; FL5.12 cells transfected with Bcl-XL, IL-3-depleted, 3% FBS assay media, 24 hours, CellTiter-Glo; read-out: FL5.12 Bcl-xL, - IL3, EC 50;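 further: each EC50 determination derived from duplicate measurements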

Sequence of GST-Bcl-xL (Q07817 whole entry): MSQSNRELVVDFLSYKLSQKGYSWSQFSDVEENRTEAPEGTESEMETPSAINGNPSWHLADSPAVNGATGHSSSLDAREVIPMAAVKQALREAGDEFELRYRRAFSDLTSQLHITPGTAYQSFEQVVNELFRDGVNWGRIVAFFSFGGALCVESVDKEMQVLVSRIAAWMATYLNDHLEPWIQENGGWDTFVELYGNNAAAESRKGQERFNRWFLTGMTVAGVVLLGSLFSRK

Structure (SMILES)	Ki [1] [nM]	EC50 [2] [nM]
O=Cc1cccc(Cn2cc(-c3ccc(N4CCc5cccc(C(=O)Nc6nc7ccccc7s6)c5C4)nc3C(=O)O)cn2)c1 [Example 64, 6-[8-(1,3-benzothiazol-2-ylcarbamoyl)-3,4-dihydroisoquinolin-2(1H)-yl]-3-[1-(3-formylbenzyl)-1H-pyrazol-4-yl]pyridine-2-carboxylic acid]	61	> 1000
O=C(Nc1nc2ccccc2s1)c1cccc2c1CN(c1ccc(-c3cnn(Cc4ccccc4)c3-c3ccccc3)c(C(=O)O)n1)CC2 [Example 65, 6-[8-(1,3-benzothiazol-2-ylcarbamoyl)-3,4-dihydroisoquinolin-2(1H)-yl]-3-(1-benzyl-5-phenyl-1H-pyrazol-4-yl)pyridine-2-carboxylic acid]	393	> 1000
Cc1c(-c2ccc(N3CCc4cccc(C(=O)Nc5nc6ccccc6s5)c4C3)nc2C(=O)O)cnn1CC1CCCOC1 (stereo not shown) [Example 66, 6-[8-(1,3-benzothiazol-2-ylcarbamoyl)-3,4-dihydroisoquinolin-2(1H)-yl]-3-[5-methyl-1-(tetrahydro-2H-pyran-3-ylmethyl)-1H-pyrazol-4-yl]pyridine-2-carboxylic acid]	3	60
O=C(Nc1nc2ccccc2s1)c1cccc2c1CN(c1ccc(-c3cnn(CC4(c5ccccc5)CCCCC4)c3)c(C(=O)O)n1)CC2 [Example 67, 6-[8-(1,3-benzothiazol-2-ylcarbamoyl)-3,4-dihydroisoquinolin-2(1H)-yl]-3-{1-[(1-phenylcyclohexyl)methyl]-1H-pyrazol-4-yl}pyridine-2-carboxylic acid]	7	106
CN(C)Cc1cccc(Cn2cc(-c3ccc(N4CCc5cccc(C(=O)Nc6nc7ccccc7s6)c5C4)nc3C(=O)O)cn2)c1 [Example 68, 6-[8-(1,3-benzothiazol-2-ylcarbamoyl)-3,4-dihydroisoquinolin-2(1H)-yl]-3-(1-{3-[(dimethylamino)methyl]benzyl}-1H-pyrazol-4-yl)pyridine-2-carboxylic acid]	279	> 1000
CS(=O)(=O)c1cccc(Cn2cc(-c3ccc(N4CCc5cccc(C(=O)Nc6nc7ccccc7s6)c5C4)nc3C(=O)O)cn2)c1 [Example 69, 6-[8-(1,3-benzothiazol-2-ylcarbamoyl)-3,4-dihydroisoquinolin-2(1H)-yl]-3-{1-[3-(methylsulfonyl)benzyl]-1H-pyrazol-4-yl}pyridine-2-carboxylic acid]	91	> 1000
O=C(Nc1nc2ccccc2s1)c1cccc2c1CN(c1ccc(-c3cnn(CC4CCCCC4)c3C3CC3)c(C(=O)O)n1)CC2 [Example 70, 6-[8-(1,3-benzothiazol-2-ylcarbamoyl)-3,4-dihydroisoquinolin-2(1H)-yl]-3-[1-(cyclohexylmethyl)-5-cyclopropyl-1H-pyrazol-4-yl]pyridine-2-carboxylic acid]	5	58
O=C(Nc1nc2ccccc2s1)c1cccc2c1CN(c1ccc(-c3cnn(Cc4ccccc4S(=O)(=O)N4CCOCC4)c3)c(C(=O)O)n1)CC2 [Example 72, 6-[8-(1,3-benzothiazol-2-ylcarbamoyl)-3,4-dihydroisoquinolin-2(1H)-yl]-3-{1-[2-(morpholin-4-ylsulfonyl)benzyl]-1H-pyrazol-4-yl}pyridine-2-carboxylic acid]	28	> 1000
Cc1c(-c2ccc(N3CCc4cccc(C(=O)Nc5nc6ccccc6s5)c4C3)nc2C(=O)O)cnn1CC1CCC(F)(F)CC1 [Example 73, 6-[8-(1,3-benzothiazol-2-ylcarbamoyl)-3,4-dihydroisoquinolin-2(1H)-yl]-3-{1-[(4,4-difluorocyclohexyl)methyl]-5-methyl-1H-pyrazol-4-yl}pyridine-2-carboxylic acid]	0.9	8
O=C(Nc1nc2ccccc2s1)c1cccc2c1CN(c1ccc(-c3cnn(CC4(C(F)(F)F)CCCCC4)c3)c(C(=O)O)n1)CC2 [Example 74, 6-[8-(1,3-benzothiazol-2-ylcarbamoyl)-3,4-dihydroisoquinolin-2(1H)-yl]-3-(1-{[1-(trifluoromethyl)cyclohexyl]methyl}-1H-pyrazol-4-yl)pyridine-2-carboxylic acid]	6	335
O=C(Nc1nc2ccccc2s1)c1cccc2c1CN(c1ccc(-c3cnn(C(c4ccccc4)c4ccccc4)c3)c(C(=O)O)n1)CC2 [Example 75, 6-[8-(1,3-benzothiazol-2-ylcarbamoyl)-3,4-dihydroisoquinolin-2(1H)-yl]-3-[1-(diphenylmethyl)-1H-pyrazol-4-yl]pyridine-2-carboxylic acid]	28	919
O=C(Nc1nc2ccccc2s1)c1cccc2c1CN(c1ccc(-c3cnn(Cc4ccccc4N4CCOCC4)c3)c(C(=O)O)n1)CC2 [Example 76, 6-[8-(1,3-benzothiazol-2-ylcarbamoyl)-3,4-dihydroisoquinolin-2(1H)-yl]-3-{1-[2-(morpholin-4-yl)benzyl]-1H-pyrazol-4-yl}pyridine-2-carboxylic acid]	29	> 1000
O=C(Nc1nc2ccccc2s1)c1cccc2c1CN(c1ccc(-c3cnn(C(CCN4CCOCC4)c4ccccc4)c3)c(C(=O)O)n1)CC2 (stereo not shown) [Example 77, 6-[8-(1,3-benzothiazol-2-ylcarbamoyl)-3,4-dihydroisoquinolin-2(1H)-yl]-3-{1-[3-(morpholin-4-yl)-1-phenylpropyl]-1H-pyrazol-4-yl}pyridine-2-carboxylic acid]	10	431
CC(C)(C)OC(=O)N1CCC(Cn2cc(-c3ccc(N4CCc5cccc(C(=O)Nc6nc7ccccc7s6)c5C4)nc3C(=O)O)cn2)CC1 [Example 78, 6-[8-(1,3-benzothiazol-2-ylcarbamoyl)-3,4-dihydroisoquinolin-2(1H)-yl]-3-(1-{[1-(tert-butoxycarbonyl)piperidin-4-yl]methyl}-1H-pyrazol-4-yl)pyridine-2-carboxylic acid]	379	> 1000
Cc1c(-c2ccc(N3CCc4cccc(C(=O)Nc5nc6ccccc6s5)c4C3)nc2C(=O)O)cnn1Cc1ccccc1OCCN1CCOCC1 [Example 79, 6-[8-(1,3-benzothiazol-2-ylcarbamoyl)-3,4-dihydroisoquinolin-2(1H)-yl]-3-(5-methyl-1-{2-[2-(morpholin-4-yl)ethoxy]benzyl}-1H-pyrazol-4-yl)pyridine-2-carboxylic acid]	0.5	19
CN(C)c1ccccc1Cn1cc(-c2ccc(N3CCc4cccc(C(=O)Nc5nc6ccccc6s5)c4C3)nc2C(=O)O)cn1 [Example 80, 6-[8-(1,3-benzothiazol-2-ylcarbamoyl)-3,4-dihydroisoquinolin-2(1H)-yl]-3-{1-[2-(dimethylamino)benzyl]-1H-pyrazol-4-yl}pyridine-2-carboxylic acid]	4	253
Cc1c(-c2ccc(N3CCc4cccc(C(=O)Nc5nc6ccccc6s5)c4C3)nc2C(=O)O)cnn1Cc1ccccc1OCCCN1CCOCC1 [Example 81, 6-[8-(1,3-benzothiazol-2-ylcarbamoyl)-3,4-dihydroisoquinolin-2(1H)-yl]-3-(5-methyl-1-{2-[3-(morpholin-4-yl)propoxy]benzyl}-1H-pyrazol-4-yl)pyridine-2-carboxylic acid]	0.6	37
Cc1c(-c2ccc(N3CCc4cccc(C(=O)Nc5nc6ccccc6s5)c4C3)nc2C(=O)O)cnn1CC1(C)CCCCC1 [Example 82, 6-[8-(1,3-benzothiazol-2-ylcarbamoyl)-3,4-dihydroisoquinolin-2(1H)-yl]-3-{5-methyl-1-[(1-methylcyclohexyl)methyl]-1H-pyrazol-4-yl}pyridine-2-carboxylic acid]	0.5	8
CC1(C)CCC(Cn2cc(-c3ccc(N4CCc5cccc(C(=O)Nc6nc7ccccc7s6)c5C4)nc3C(=O)O)cn2)=C(c2ccc(Cl)cc2)C1 [Example 83, 6-[8-(1,3-benzothiazol-2-ylcarbamoyl)-3,4-dihydroisoquinolin-2(1H)-yl]-3-(1-{[2-(4-chlorophenyl)-4,4-dimethylcyclohex-1-en-1-yl]methyl}-1H-pyrazol-4-yl)pyridine-2-carboxylic acid]	0.5	> 1000
CCc1c(-c2ccc(N3CCc4cccc(C(=O)Nc5nc6ccccc6s5)c4C3)nc2C(=O)O)cnn1CC1CCCCC1 [Example 84, 6-[8-(1,3-benzothiazol-2-ylcarbamoyl)-3,4-dihydroisoquinolin-2(1H)-yl]-3-[1-(cyclohexylmethyl)-5-ethyl-1H-pyrazol-4-yl]pyridine-2-carboxylic acid]	0.7	12
CC(C)CC1(Cn2cc(-c3ccc(N4CCc5cccc(C(=O)Nc6nc7ccccc7s6)c5C4)nc3C(=O)O)cn2)CCCCC1 [Example 87, 6-[8-(1,3-benzothiazol-2-ylcarbamoyl)-3,4-dihydroisoquinolin-2(1H)-yl]-3-(1-{[1-(2-methylpropyl)cyclohexyl]methyl}-1H-pyrazol-4-yl)pyridine-2-carboxylic acid]	4	124
COCCC1(Cn2cc(-c3ccc(N4CCc5cccc(C(=O)Nc6nc7ccccc7s6)c5C4)nc3C(=O)O)cn2)CCCCC1 [Example 88, 6-[8-(1,3-benzothiazol-2-ylcarbamoyl)-3,4-dihydroisoquinolin-2(1H)-yl]-3-(1-{[1-(2-methoxyethyl)cyclohexyl]methyl}-1H-pyrazol-4-yl)pyridine-2-carboxylic acid]	3	229
COCCOc1ccccc1Cn1ncc(-c2ccc(N3CCc4cccc(C(=O)Nc5nc6ccccc6s5)c4C3)nc2C(=O)O)c1C [Example 89, 6-[8-(1,3-benzothiazol-2-ylcarbamoyl)-3,4-dihydroisoquinolin-2(1H)-yl]-3-{1-[2-(2-methoxyethoxy)benzyl]-5-methyl-1H-pyrazol-4-yl}pyridine-2-carboxylic acid]	0.5	23
